Measured values from article PMC9481151, “Discovery of new symmetrical and asymmetrical nitrile-containing 1,4-dihydropyridine derivatives as dual kinases and P-glycoprotein inhibitors: synthesis, in vitro assays, and in silico studies” (Journal of Enzyme Inhibition and Medicinal Chemistry, 2022).

Legend:
HCC-2998 = test: NCI single dose (10 µM) SRB screen; assay type: cell-based, human; conditions: colon cancer, 48 h
HS578T = test: NCI single dose (10 µM) SRB screen; assay type: cell-based, human; conditions: breast cancer, 48 h
SK-MEL-5 = test: NCI single dose (10 µM) SRB screen; assay type: cell-based, human; conditions: melanoma, 48 h
MALME-3M = test: NCI single dose (10 µM) SRB screen; assay type: cell-based, human; conditions: melanoma, 48 h
OVCAR-3 = test: NCI single dose (10 µM) SRB screen; assay type: cell-based, human; conditions: ovarian cancer, 48 h
IGROV1 = test: NCI single dose (10 µM) SRB screen; assay type: cell-based, human; conditions: ovarian cancer, 48 h
NCI-H522 = test: NCI single dose (10 µM) SRB screen; assay type: cell-based, human; conditions: non-small cell lung cancer, 48 h
MDA-MB-468 = test: NCI single dose (10 µM) SRB screen; assay type: cell-based, human; conditions: breast cancer, 48 h
SF-268 = test: NCI single dose (10 µM) SRB screen; assay type: cell-based, human; conditions: CNS cancer, 48 h
HT29 = test: NCI single dose (10 µM) SRB screen; assay type: cell-based, human; conditions: colon cancer, 48 h
NCI-H226 = test: NCI single dose (10 µM) SRB screen; assay type: cell-based, human; conditions: non-small cell lung cancer, 48 h
SNB-75 = test: NCI single dose (10 µM) SRB screen; assay type: cell-based, human; conditions: CNS cancer, 48 h
CCRF-CEM = test: NCI single dose (10 µM) SRB screen; assay type: cell-based, human; conditions: leukaemia, 48 h
RPMI-8226 = test: NCI single dose (10 µM) SRB screen; assay type: cell-based, human; conditions: leukaemia, 48 h
Staphylococcus aureus = test: Agar well diffusion method
M14 = test: NCI single dose (10 µM) SRB screen; assay type: cell-based, human; conditions: melanoma, 48 h
OVCAR-5 = test: NCI single dose (10 µM) SRB screen; assay type: cell-based, human; conditions: ovarian cancer, 48 h
HCT-15 = test: NCI single dose (10 µM) SRB screen; assay type: cell-based, human; conditions: colon cancer, 48 h
T-47D = test: NCI single dose (10 µM) SRB screen; assay type: cell-based, human; conditions: breast cancer, 48 h
KM12 = test: NCI single dose (10 µM) SRB screen; assay type: cell-based, human; conditions: colon cancer, 48 h
NCI-H460 = test: NCI single dose (10 µM) SRB screen; assay type: cell-based, human; conditions: non-small cell lung cancer, 48 h
SK-OV-3 = test: NCI single dose (10 µM) SRB screen; assay type: cell-based, human; conditions: ovarian cancer, 48 h
SK-MEL-28 = test: NCI single dose (10 µM) SRB screen; assay type: cell-based, human; conditions: melanoma, 48 h
K-562 = test: NCI single dose (10 µM) SRB screen; assay type: cell-based, human; conditions: leukaemia, 48 h
SR = test: NCI single dose (10 µM) SRB screen; assay type: cell-based, human; conditions: leukaemia, 48 h
786-0 = test: NCI single dose (10 µM) SRB screen; assay type: cell-based, human; conditions: renal cancer, 48 h
Candida albicans = test: Agar well diffusion method
Escherichia coli = test: Agar well diffusion method
HOP-62 = test: NCI single dose (10 µM) SRB screen; assay type: cell-based, human; conditions: non-small cell lung cancer, 48 h
MOLT-4 = test: NCI single dose (10 µM) SRB screen; assay type: cell-based, human; conditions: leukaemia, 48 h
NCI/ADR-RES = test: NCI single dose (10 µM) SRB screen; assay type: cell-based, human; conditions: ovarian cancer, 48 h
Bacillus subtilis = test: Agar well diffusion method
MDA-MB-435 = test: NCI single dose (10 µM) SRB screen; assay type: cell-based, human; conditions: melanoma, 48 h
TK-10 = test: NCI single dose (10 µM) SRB screen; assay type: cell-based, human; conditions: renal cancer, 48 h
EKVX = test: NCI single dose (10 µM) SRB screen; assay type: cell-based, human; conditions: non-small cell lung cancer, 48 h
LOX IMVI = test: NCI single dose (10 µM) SRB screen; assay type: cell-based, human; conditions: melanoma, 48 h
NCI 60 cancer cell lines = test: NCI single dose (10 µM) SRB screen, mean over panel; assay type: cell-based, human; conditions: mean over 60 cell lines, 48 h
U251 = test: NCI single dose (10 µM) SRB screen; assay type: cell-based, human; conditions: CNS cancer, 48 h
MDA-MB-231 = test: NCI single dose (10 µM) SRB screen; assay type: cell-based, human; conditions: breast cancer, 48 h
HCT-116 = test: NCI single dose (10 µM) SRB screen; assay type: cell-based, human; conditions: colon cancer, 48 h
NCI-H23 = test: NCI single dose (10 µM) SRB screen; assay type: cell-based, human; conditions: non-small cell lung cancer, 48 h
SNB-19 = test: NCI single dose (10 µM) SRB screen; assay type: cell-based, human; conditions: CNS cancer, 48 h
PC-3 = test: NCI single dose (10 µM) SRB screen; assay type: cell-based, human; conditions: prostate cancer, 48 h
SN12C = test: NCI single dose (10 µM) SRB screen; assay type: cell-based, human; conditions: renal cancer, 48 h
SK-MEL-2 = test: NCI single dose (10 µM) SRB screen; assay type: cell-based, human; conditions: melanoma, 48 h
Pseudomonas aeruginosa = test: Agar well diffusion method
SF-295 = test: NCI single dose (10 µM) SRB screen; assay type: cell-based, human; conditions: CNS cancer, 48 h
DU-145 = test: NCI single dose (10 µM) SRB screen; assay type: cell-based, human; conditions: prostate cancer, 48 h
COLO 205 = test: NCI single dose (10 µM) SRB screen; assay type: cell-based, human; conditions: colon cancer, 48 h
SW-620 = test: NCI single dose (10 µM) SRB screen; assay type: cell-based, human; conditions: colon cancer, 48 h

CCOC(=O)C1=C(C)NC(C)=C(C(=O)OCCOC)C1c1cccc(C#N)c1 (racemic) [Compound 2k, (±)-3-Ethyl 5-(2-methoxyethyl) 4-(3-cyanophenyl)-2,6-dimethyl-1,4-dihydropyridine-3,5-dicarboxylate]
GI% HCC-2998 (HCC-2998): – (Only GI% ≥ 10 are shown) | GI% HS578T (HS578T): – (Only GI% ≥ 10 are shown) | GI% SK-MEL-5 (SK-MEL-5): – (Only GI% ≥ 10 are shown) | GI% MALME-3M (MALME-3M): – (Only GI% ≥ 10 are shown) | GI% OVCAR-3 (OVCAR-3): – (Only GI% ≥ 10 are shown) | GI% IGROV1 (IGROV1): – (Only GI% ≥ 10 are shown) | GI% NCI-H522 (NCI-H522): – (Only GI% ≥ 10 are shown) | GI% MDA-MB-468 (MDA-MB-468): – (Only GI% ≥ 10 are shown) | GI% SF-268 (SF-268): – (Only GI% ≥ 10 are shown) | GI% HT29 (HT29): – (Only GI% ≥ 10 are shown) | GI% NCI-H226 (NCI-H226): – (Only GI% ≥ 10 are shown) | GI% SNB-75 (SNB-75): – (Only GI% ≥ 10 are shown) | GI% CCRF-CEM (CCRF-CEM): – (Only GI% ≥ 10 are shown) | GI% RPMI-8226 (RPMI-8226): – (Only GI% ≥ 10 are shown) | zone of inhibition at 1000 µg/mL (Staphylococcus aureus; Staphylococcus aureus, 24 h, read-out: Diameter of inhibition zone, S. aureus): 17 mm | % activity index, S. aureus (Staphylococcus aureus; relative to ciprofloxacin): 70.8% | GI% M14 (M14): – (Only GI% ≥ 10 are shown) | GI% OVCAR-5 (OVCAR-5): – (Only GI% ≥ 10 are shown) | GI% HCT-15 (HCT-15): – (Only GI% ≥ 10 are shown) | GI% T-47D (T-47D): – (Only GI% ≥ 10 are shown) | GI% KM12 (KM12): – (Only GI% ≥ 10 are shown) | GI% NCI-H460 (NCI-H460): – (Only GI% ≥ 10 are shown) | GI% SK-OV-3 (SK-OV-3): – (Only GI% ≥ 10 are shown) | GI% SK-MEL-28 (SK-MEL-28): – (Only GI% ≥ 10 are shown) | GI% K-562 (K-562): 10% | GI% SR (SR): 13% | GI% 786-0 (786-0): – (Only GI% ≥ 10 are shown) | zone of inhibition at 1000 µg/mL (Candida albicans; Candida albicans, 24 h, read-out: Diameter of inhibition zone, C. albicans): 16 mm | % activity index, C. albicans (Candida albicans; relative to clotrimazole): 59.2% | zone of inhibition at 1000 µg/mL (Escherichia coli; Escherichia coli, 24 h, read-out: Diameter of inhibition zone, E. coli): 15 mm | % activity index, E. coli (Escherichia coli; relative to ciprofloxacin): 57.7% | GI% HOP-62 (HOP-62): – (Only GI% ≥ 10 are shown) | GI% MOLT-4 (MOLT-4): – (Only GI% ≥ 10 are shown) | GI% NCI/ADR-RES (NCI/ADR-RES): – (Only GI% ≥ 10 are shown) | zone of inhibition at 1000 µg/mL (Bacillus subtilis; Bacillus subtilis, 24 h, read-out: Diameter of inhibition zone, B. subtilis): 13 mm | % activity index, B. subtilis (Bacillus subtilis; relative to ciprofloxacin): 56.5% | GI% MDA-MB-435 (MDA-MB-435): – (Only GI% ≥ 10 are shown) | GI% TK-10 (TK-10): – (Only GI% ≥ 10 are shown) | GI% EKVX (EKVX): – (Only GI% ≥ 10 are shown) | GI% LOX IMVI (LOX IMVI): – (Only GI% ≥ 10 are shown) | Mean GI% (NCI 60 cancer cell lines): −1% | GI% U251 (U251): – (Only GI% ≥ 10 are shown) | GI% MDA-MB-231 (MDA-MB-231): – (Only GI% ≥ 10 are shown) | GI% HCT-116 (HCT-116): – (Only GI% ≥ 10 are shown) | GI% NCI-H23 (NCI-H23): – (Only GI% ≥ 10 are shown) | GI% SNB-19 (SNB-19): – (Only GI% ≥ 10 are shown) | GI% PC-3 (PC-3): – (Only GI% ≥ 10 are shown) | GI% SN12C (SN12C): – (Only GI% ≥ 10 are shown) | GI% SK-MEL-2 (SK-MEL-2): – (Only GI% ≥ 10 are shown) | zone of inhibition at 1000 µg/mL (Pseudomonas aeruginosa; Pseudomonas aeruginosa, 24 h, read-out: Diameter of inhibition zone, P. aeruginosa): 20 mm | % activity index, P. aeruginosa (Pseudomonas aeruginosa; relative to ciprofloxacin): 86.9% | GI% SF-295 (SF-295): – (Only GI% ≥ 10 are shown) | GI% DU-145 (DU-145): – (Only GI% ≥ 10 are shown) | GI% COLO 205 (COLO 205): – (Only GI% ≥ 10 are shown) | GI% SW-620 (SW-620): – (Only GI% ≥ 10 are shown)
